Measurements published in patent US20170173011A1, “METHODS OF TREATING A BRUTON'S TYROSINE KINASE DISEASE OR DISORDER” (Celgene Avilomics Research, Inc., priority 2014, published 2017).

Assays:
NZBxNZW F1 mice = details: literature; cited from earlier work
[1] = tested on: NZBxNZW F1 mouse SLE model; experiment: anti-dsDNA autoantibody quantitation by ELISA in serum, NZBxNZW F1 mouse SLE model; type: in vivo
Method: (§1) Compound 1 besylate was tested in the NZBxNZW Fl mouse SLE model. Treatment efficacy of Compound 1 besylate in this model was compared with cyclophosphamide, and a vehicle control. Principal end measures were autoantibodies against double stranded DNA (dsDNA) and protein in the urine.
Female NZBxNZW FI mice were housed in filter-top Nalgene cages, maintained on a 12-hour light/12-hour dark cycle with a room temperature of 70° F.+/−4° F. Mice were allowed to acclimate to the laboratory environment for approximately 5-7 days to ascertain their continued good health. Irradiated laboratory rodent chow and autoclaved water were supplied ad libitum.
Eighty NZBxNZW F1 female mice ˜12 weeks in age were obtained from Jackson Laboratory and were acclimatized for one week. After the acclimatization period was complete, each mouse that was successfully acclimatized was ear tagged and body weight recorded.
An initial bleed was performed prior to treatment initiation and serum prepared from the blood sampled. Serum samples were stored at −80° C. Following treatment initiation, blood was collected once every two weeks during the in-life phase for subsequent serum preparation.
(§2) Treatment was administered when the mice reached ˜20 weeks of age as follows:
(§3) Proteinuria: Urine was tested once every two weeks when the animals reached ˜13 weeks of age. Urine analysis was preformed midweek at approximately the same time of the day. Weekly urine analysis commenced when the animals reached the age of ˜18 weeks. Proteinuria levels were evaluated using Albustix urine strips. Serum was collected via collection of blood from tail bleeds when animals reached 13 weeks in age, then prior to initiating the treatment and thereafter twice a month.
Results. Individual autoantibody development in NZBxNZW Fl mice over time is depicted in FIG. 1A. Serum samples were collected from vehicle treated mice at the times indicated and an anti-dsDNA quantitation by ELISA performed. During the course of measurement from 18 weeks of age to 36 weeks of age, six (6) out of ten (10) mice developed autoantibodies against dsDNA greater than 400 KU/ml during the course of disease development and eight out of ten developed dsDNA antibodies greater than 200 kU/ml.

[2] = tested on: NZBxNZW F1 mouse SLE model; experiment: urine protein (proteinuria, Albustix strips) in NZBxNZW F1 mouse SLE model; type: in vivo
Method: as §1
Urine analysis was initiated when the animals reached 13-14 weeks of age. Initially urine analysis was performed once in two weeks. When the animals reached 18-19 weeks of age, weekly urine analysis for proteinuria levels was performed using Albustix® Reagent strips for Urinalysis (Bayer, Inc). Results were scored on a 0-4 scale using the following criteria:
When the mice reached 19 weeks of age, all animals were evaluated with respect to their proteinuria scores. Based on that evaluation, […] mice were selected and assigned to 6 groups of 10 mice each and one group of 5 mice. The mice were assigned such that the distributions of proteinuria scores among all groups were as uniform as possible.
as §2, §3

B6.sle1 mouse SLE model = details: literature (Hutcheson et al.); reduced anti histone, anti ssDNA, kidney lymphocytes and renal damage; cited from earlier work

## N#CN1CCCC(n2nc(-c3ccc(Oc4ccc(F)cc4F)cc3)c(C(N)=O)c2N)C1 (centres unmarked) [PF-06250112]
NZBxNZW F1 mice
  effect on lupus nephritis / SLE in NZBxNZW F1 mice: efficacious

## CN1CCN(c2ccc(Nc3cc(-c4cccc(-n5ccc6cc(C7CC7)cc(F)c6c5=O)c4CO)cn(C)c3=O)nc2)CC1 [RN486]
NZBxNZW F1 mice
  effect on lupus nephritis / SLE in NZBxNZW F1 mice: efficacious

## O=P1(N(CCCl)CCCl)NCCCO1 (centres unmarked) [Cyclophophamide, Cyclophosphamide]
NZBxNZW F1 mice
  effect on lupus nephritis / SLE in NZBxNZW F1 mice: inhibit lupus nephritis

## C=CC(=O)Nc1cccc(Nc2nc(Nc3ccc(OCCOC)cc3)ncc2F)c1 [Compound 1 besylate, N-(3-(5-fluoro-2-(4-(2-methoxyethoxy)phenylamino)pyrimidin-4-ylamino)phenyl)acrylamide besylate]
[1]; 50 mg/kg BID PO for 12 weeks, vehicle: six (6) of ten (10)
  number of treated mice that developed dsDNA antibodies over 400 kU/ml: 2 of ten (10) treated mice
[1]; 50 mg/kg BID PO, of ten treated mice
  number of mice with nearly complete suppression of anti-dsDNA development: 6 mice
[1]; 50 mg/kg BID PO, weeks 29 through 33
  anti-dsDNA autoantibody development (FIG. 1C): reduced anti-dsDNA autoantibody development
[1]; 50 mg/kg BID PO, weeks 35 and 36, of ten treated mice
  number of mice with blunted anti-dsDNA responses at the end of the study: 2 mice
[2]; 50 mg/kg BID PO for 12 weeks
  protein levels measured in the urine relative to vehicle (FIG. 2): reduced protein levels
[2]; 100 mg/kg QD PO for 12 weeks
  protein levels measured in the urine relative to vehicle (FIG. 2): reduced protein levels
[2]; across dose groups
  urine protein, dose dependence: dose-associated trend of reduced urine protein

## C=CC(=O)N1CCC[C@@H](n2nc(-c3ccc(Oc4ccccc4)cc3)c3c(N)ncnc32)C1 [PCI 32765/Ibrutinib]
B6.sle1 mouse SLE model
  efficacy in B6.sle1 mouse SLE model: efficacious
